Results as given in patent US9346827B2, “5-amino-oxazepine and 5-amino-thiazepane compounds as beta secretase antagonists and methods of use” (Amgen Inc., priority 2011, dated 2016).

Columns and labels:
[1] = molecular target: BACE 1 (Homo sapiens (Human), UniProt P56817); assay: In vitro enzymatic BACE FRET assay; assay type: biochemical; conditions: average IC50; enzyme 0.2 nM, FRET substrate 50 nM, pH 4.2
Description: In Vitro Enzymatic BACE FRET (Fluorescence Resonance Energy Transfer) Assay
The assay buffer used in this screen is 0.05 M acetate, pH 4.2, 10% DMSO final, 100 uM genapol (which is a nonionic detergent, below its Critical Micelle Concentration). […] This assay is effectively started by the addition of FRET substrate (50 nM) and the combination is incubated for one hour. The FRET assay is terminated with by addition of Tris buffer, which raises the pH to neutrality, and the fluorescence is determined. The FRET substrate is a peptide with commercially available fluorophore and quencher, on opposite sides of the BACE cleavage site. Proteolytic cleavage of the FRET substrate releases quenching of fluorescence (excitation […] and […]).

[2] = test system: Aβ40 in conditioned medium of cells expressing amyloid precursor protein; assay: In vitro BACE cell-based assay (HEK cell assay, Aβ40 sandwich ELISA); conditions: Homo sapiens, HEK293; average IC50; inhibition of Aβ40 after 24 h incubation
Description: In Vitro BACE Cell-Based Assay
The cell-based assay measures inhibition or reduction of Aβ40 in conditioned medium of test compound treated cells expressing amyloid precursor protein.
Cells stably expressing Amyloid Precursor Protein (APP) were plated at a density of 40K cells/well in 96 well plates (Costar). The cells were cultivated for 24 hours at 37° C. and 5% CO2 in DMEM supplemented with 10% FBS. The test compounds were then added to cells in 10-point dose response concentrations with the starting concentration being either 100 μM or 10 μM. The compounds were diluted from stock solutions in DMSO and the final DMSO concentration of the test compounds on cells was 0.1%. After 24 h of incubation with the test compounds the supernatant conditioned media was collected and the Aβ40 levels were determined using a sandwich ELISA. The IC50 of the compound was calculated from the percent of control or percent inhibition of Aβ40 as a function of the concentration of the test compound.
The sandwich ELISA to detect Aβ40 was performed in 96 well microtiter plates, which were pre-treated with goat anti-rabbit IgG (Pierce). The capture and detecting antibody pair that were used to detect Aβ40 from cell supernatants were affinity purified pAb40 (Biosource) and biotinylated 6E10 (Signet Labs Inc.), respectively. The optimal concentration for the pAb40 antibody was 3 μg/ml in Superblock/TBS (Pierce) that was supplemented with 0.05% Tween 20 (Sigma).
Cellular supernatants were incubated with the capture antibody for 3 h at 4° C., followed by 3 wash steps in TBS-tween (0.05%). The detecting antibody incubation was for 2 h at 4° C., again followed by the wash steps as described previously. The final readout of the ELISA is Time-Resolved Fluorescence (counts per minute) using Delfia reagents Streptavidin-Europium and Enhancement solutions (Perkin Elmer) and the Victor 2 multilabel counter (Perkin Elmer).

BACE 1, sequence (P56817 46-501, species assumed): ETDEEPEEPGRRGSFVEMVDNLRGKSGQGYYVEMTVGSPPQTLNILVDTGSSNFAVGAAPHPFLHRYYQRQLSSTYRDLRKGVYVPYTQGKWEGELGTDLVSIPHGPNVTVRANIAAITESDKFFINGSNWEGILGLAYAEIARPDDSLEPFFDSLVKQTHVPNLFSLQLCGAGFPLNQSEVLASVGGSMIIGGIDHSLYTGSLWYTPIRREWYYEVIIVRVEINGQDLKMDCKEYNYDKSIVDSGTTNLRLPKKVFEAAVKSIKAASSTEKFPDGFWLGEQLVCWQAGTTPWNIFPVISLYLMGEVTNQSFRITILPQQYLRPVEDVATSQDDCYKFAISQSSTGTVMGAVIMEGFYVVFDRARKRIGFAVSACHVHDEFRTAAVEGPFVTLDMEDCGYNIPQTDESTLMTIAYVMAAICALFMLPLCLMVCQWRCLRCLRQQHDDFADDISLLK

IC50 [1] [nM] | IC50 [2] [nM] | SMILES
1 | 12 | CC(C)(C)COc1cc(F)c2c(c1)C1(COCCC(N)=N1)c1cc(-c3cccnc3F)ccc1O2 (racemic) [Example 4, (3R/S)-2′-(2,2-dimethylpropoxy)-4′-fluoro-7′-(2-fluoro-3-pyridinyl)-6,7-dihydrospiro[1,4-oxazepine-3,9′-xanthen]-5-amine]
285 | 300 | CC(C)(C)COc1cc(F)c2c(c1)[C@@]1(COCCC(N)=N1)c1cc(-c3cccnc3F)ccc1O2 [Example 16, (3R)-2′-(2,2-dimethylpropoxy)-4′-fluoro-7′-(2-fluoro-3-pyridinyl)-6,7-dihydrospiro[1,4-oxazepine-3,9′-xanthen]-5-amine]
9230 | 6370 | NC1=N[C@]2(COCC1)c1cc(Br)ccc1Oc1cnc(Cl)cc12 [Example 3A, (5R)-7-bromo-3-chloro-6′,7′-dihydrospiro-[chromeno[2,3-c]pyridine-5,3′-[1,4]oxazepin]-5′-amine]
369 | 689 | NC1=N[C@]2(CCOC1)c1cc(-c3cccnc3F)ccc1Oc1cnc(-c3ccnc(F)c3)cc12 [Example 17, (5R)-7-(2-fluoro-3-pyridinyl)-3-(2-fluoro-4-pyridinyl)-6′,7′-dihydro-2′H-spiro[chromeno[2,3-c]pyridine-5,5′-[1,4]oxazepin]-3′-amine]
0.5 | 1 | NC1=N[C@@]2(COCC1)c1cc(-c3cccnc3F)ccc1Oc1cnc(-c3ccnc(F)c3)cc12 [Example 14, (5S)-7-(2-fluoro-3-pyridinyl)-3-(2-fluoro-4-pyridinyl)-6′,7′-dihydrospiro[chromeno-[2,3-c]-pyridine-5,3′-[1,4]oxazepin]-5′-amine]
139 | 78 | NC1=N[C@]2(COCC1)c1cc(-c3cccnc3F)ccc1Oc1cnc(-c3ccnc(F)c3)cc12 [Example 13, (5R)-7-(2-fluoro-3-pyridinyl)-3-(2-fluoro-4-pyridinyl)-6′,7′-dihydrospiro[chromeno-[2,3-c]-pyridine-5,3′-[1,4]oxazepin]-5′-amine]
3830 | 892 | NC1=N[C@@]2(COCC1)c1cc(Br)ccc1Oc1cnc(Cl)cc12 [Example 3B, (5S)-7-bromo-3-chloro-6′,7′-dihydrospiro-[chromeno[2,3-c]-pyridine-5,3′-[1,4]oxazepin]-5′-amine]
0.5 | 7 | CC(C)(C)COc1cc(F)c2c(c1)[C@]1(COCCC(N)=N1)c1cc(-c3cccnc3F)ccc1O2 [Example 15, (3S)-2′-(2,2-dimethylpropoxy)-4′-fluoro-7′-(2-fluoro-3-pyridinyl)-6,7-dihydrospiro[1,4-oxazepine-3,9′-xanthen]-5-amine]
1 | 3 | NC1=NC2(COCC1)c1cc(-c3cccnc3F)ccc1Oc1cnc(-c3ccnc(F)c3)cc12 (racemic) [Example 2, (5R/S)-7-(2-fluoro-3-pyridinyl)-3-(2-fluoro-4-pyridinyl)-6′,7′-dihydrospiro-[chromeno-[2,3-c]pyridine-5,3′-[1,4]oxazepin]-5′-amine]
3 | 4 | NC1=N[C@@]2(CCOC1)c1cc(-c3cccnc3F)ccc1Oc1cnc(N3CCC(F)(F)C3)cc12 [Example 19, (S)-3-(3,3-difluoropyrrolidin-1-yl)-7-(2-fluoropyridin-3-yl)-6′,7′-dihydro-2′H-spiro[chromeno[2,3-c]pyridine-5,5′-[1,4]oxazepin]-3′-amine]
